The record followed here is PubChem BioAssay AID328 (DTP/NCI, 2004).

This assay deals with BDF1 mice, P388 leukemia ip, median survival T/C. As to the kind of experiment: NCI In Vivo Anticancer Drug Screen. Data for tumor model P388 Leukemia (intraperitoneal) in B6D2F1 (BDF1) mice. The settings on record: endpoint: median survival time, higher = longer survival. Put shortly:
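Reported as T/C, where T is the survival measurement in dosed animals and C the same measurement in vehicle controls.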

[1] abbreviates: dose: 2.0 mg/kg/injection, schedule: Q01DX009 (ip), vehicle: saline with Tween-80.
[2] abbreviates: dose: 8.0 mg/kg/injection, schedule: Q01DX009 (ip), vehicle: saline with Tween-80.
The mark [3] stands for this setting: dose: 100.0 mg/kg/injection, schedule: Q04DX003 (ip), vehicle: saline sonified.
Where [4] appears, read: dose: 100.0 mg/kg/injection, schedule: Q04DX003 (ip), vehicle: Klucel (hydroxypropylcellulose) (HPC).
[5] abbreviates: dose: 25.0 mg/kg/injection, schedule: Q01DX009 (ip), vehicle: saline with Tween-80.
Where [6] appears, read: dose: 50.0 mg/kg/injection, schedule: Q01DX009 (ip), vehicle: saline with Tween-80.
Setting [7] is: dose: 100.0 mg/kg/injection, schedule: Q01DX009 (ip), vehicle: saline with Tween-80.
[8] abbreviates: dose: 100.0 mg/kg/injection, schedule: Q04DX003 (ip), vehicle: saline with Tween-80.
Setting [9] is: dose: 200.0 mg/kg/injection, schedule: Q04DX003 (ip), vehicle: saline with Tween-80.
Setting [10] is: dose: 400.0 mg/kg/injection, schedule: Q04DX003 (ip), vehicle: saline with Tween-80.
[11] abbreviates: dose: 50.0 mg/kg/injection, schedule: Q04DX003 (ip), vehicle: saline with Tween-80.
Where [12] appears, read: dose: 0.5 mg/kg/injection, schedule: Q01DX009 (ip), vehicle: saline.
The mark [13] stands for this setting: dose: 1.0 mg/kg/injection, schedule: Q01DX009 (ip), vehicle: saline.

Where “and” joins values, the source holds several entries; their conditions need not be identical. Equal values may be shown once. Toxic doses and inconclusive results are not listed.

As to `N#CC1(C#N)C(c2ccccc2)C1(C#N)C#N`, the T/C runs as follows: under setting [1], 120 % of control; (dose: 2.66 mg/kg/injection, schedule: Q01DX009 (ip), vehicle: saline with Tween-80) 122 % of control; (dose: 2.66 mg/kg/injection, schedule: Q01DX009 (ip), vehicle: saline) 109 % of control and 120 % of control; (dose: 4.0 mg/kg/injection, schedule: Q01DX009 (ip), vehicle: saline) 108 % of control; (dose: 6.0 mg/kg/injection, schedule: Q01DX009 (ip), vehicle: saline) 118 % of control; (dose: 6.25 mg/kg/injection, schedule: Q01DX009 (ip), vehicle: saline with Tween-80) 115 % of control. Besides, the T/C under setting [2] is 120 % of control.
As for `O=C1NC(=O)c2cc([N+](=O)[O-])cc3cccc1c23`, the T/C was 91 % of control under setting [3]; 95 % of control (dose: 200.0 mg/kg/injection, schedule: Q04DX003 (ip), vehicle: saline sonified); 87 % of control (dose: 400.0 mg/kg/injection, schedule: Q04DX003 (ip), vehicle: saline sonified).
In the case of `CC12C=CC(=O)C=C1CCC1C2C(O)CC2(C)C1CCC2(O)C(=O)COC(=O)Cc1ccc(N(CCCl)CCCl)cc1` (configuration not stated), the T/C was 97 % of control (dose: 3.5 mg/kg/injection, schedule: Q01DX009 (ip), vehicle: saline); 97 % of control (dose: 7.0 mg/kg/injection, schedule: Q01DX009 (ip), vehicle: saline); 118 % of control (dose: 14.0 mg/kg/injection, schedule: Q01DX009 (ip), vehicle: saline).
Turning to `CC(=O)N(N=Nc1ccccc1)c1cccc2ccccc12`, the T/C reads like this: (dose: 25.0 mg/kg/injection, schedule: Q01DX009 (ip), vehicle: Klucel (hydroxypropylcellulose) (HPC)) 109 % of control and 113 % of control; (dose: 35.0 mg/kg/injection, schedule: Q01DX009 (ip), vehicle: Klucel (hydroxypropylcellulose) (HPC)) 103 % of control; (dose: 50.0 mg/kg/injection, schedule: Q01DX009 (ip), vehicle: Klucel (hydroxypropylcellulose) (HPC)) 107 % of control; (dose: 50.0 mg/kg/injection, schedule: Q04DX003 (ip), vehicle: Klucel (hydroxypropylcellulose) (HPC)) 100 % of control; under setting [4], 110 % of control.
With `COC12C(COC(N)=O)C3=C(C(=O)C(C)=C(N4CC4)C3=O)N1CC1NC12` (configuration not stated), the T/C was 235 % of control (dose: 0.21 mg/kg/injection, schedule: Q04DX003 (ip), vehicle: saline with Tween-80); 200 % of control (dose: 0.33 mg/kg/injection, schedule: Q04DX003 (ip), vehicle: saline with Tween-80); 190 % of control (dose: 0.5 mg/kg/injection, schedule: Q04DX003 (ip), vehicle: saline with Tween-80); 255 % of control (dose: 0.75 mg/kg/injection, schedule: Q04DX003 (ip), vehicle: saline with Tween-80).
On to `CCCCNc1nc(N)nc(Nc2ccc(Br)cc2)c1N=O`, for which the T/C reads like this: under setting [5], 90 % of control; under setting [6], 90 % of control; (dose: 100.0 mg/kg/injection, schedule: Q01DX001 (ip), vehicle: Klucel (hydroxypropylcellulose) (HPC)) 100 % of control; under setting [7], 90 % of control and 91 % of control; under setting [4], 120 % of control; under setting [8], 86 % of control. In addition, the T/C is 100 % of control and 109 % of control (dose: 132.0 mg/kg/injection, schedule: Q04DX003 (ip), vehicle: Klucel (hydroxypropylcellulose) (HPC)); 91 % of control (dose: 200.0 mg/kg/injection, schedule: Q01DX001 (ip), vehicle: Klucel (hydroxypropylcellulose) (HPC)); 104 % of control (dose: 200.0 mg/kg/injection, schedule: Q04DX003 (ip), vehicle: Klucel (hydroxypropylcellulose) (HPC)); 104 % of control under setting [9]; 90 % of control and 113 % of control (dose: 300.0 mg/kg/injection, schedule: Q04DX003 (ip), vehicle: Klucel (hydroxypropylcellulose) (HPC)); 91 % of control (dose: 400.0 mg/kg/injection, schedule: Q01DX001 (ip), vehicle: Klucel (hydroxypropylcellulose) (HPC)). Moreover, under setting [10], the T/C is 100 % of control.
With `CCCCCCCN(CCCCCCC)CC(O)c1cc2ccccc2c2cnccc12` (configuration not stated), the T/C by setting is: (dose: 75.0 mg/kg/injection, schedule: Q04DX003 (ip), vehicle: saline with Tween-80) 104 % of control; (dose: 150.0 mg/kg/injection, schedule: Q04DX003 (ip), vehicle: saline with Tween-80) 113 % of control; (dose: 300.0 mg/kg/injection, schedule: Q04DX003 (ip), vehicle: saline with Tween-80) 95 % of control.
Consider `COc1cc(N/C(N)=N\C(N)=NC(C)C)cc(OC)c1OC`, for which the T/C under setting [3] is 95 % of control.
Turning to `CCOC(=O)C1=C(O)c2c(sc(C)c2C)N(S(=O)(=O)c2ccc(C)cc2)CC1`, the T/C by setting is: under setting [5], 90 % of control; under setting [6], 113 % of control; under setting [11], 91 % of control; under setting [7], 104 % of control; under setting [8], 91 % of control; (dose: 200.0 mg/kg/injection, schedule: Q01DX009 (ip), vehicle: saline with Tween-80) 109 % of control. Besides, the T/C is, setting by setting: under setting [9], 91 % of control; under setting [10], 100 % of control.
Take `O=C(NCCCl)N(CCCl)C(=O)Oc1c(Cl)cc(Cl)cc1Cl`: the T/C reads like this: (dose: 50.0 mg/kg/injection, schedule: Q01DX005 (ip), vehicle: saline with Tween-80) 100 % of control; (dose: 100.0 mg/kg/injection, schedule: Q01DX005 (ip), vehicle: saline with Tween-80) 112 % of control; (dose: 200.0 mg/kg/injection, schedule: Q01DX005 (ip), vehicle: saline with Tween-80) 100 % of control.
`COc1ccccc1Cc1c(OC)cc(OC)c(C(=O)CCc2ccccc2)c1O`: the T/C under setting [12] is 103 % of control and the T/C under setting [13] was 106 % of control.
For `CC12CCC(=O)C=C1CCC1C2CCC2(C)C(OP(=O)(N3CC3)N3CC3)CCC12` (configuration not stated), the T/C under setting [8] was 110 % of control.
`CC(O)C1(O)C(O)CC(OC2c3cc4c(c(O)c3[C@@H]3C[C@@]2(C)OC32C=c3cc[nH]c3=N2)C(=O)c2cccc(O)c2C4=O)OC1C` (some centres not stated): the T/C by setting is: (dose: 0.5 mg/kg/injection, schedule: Q01DX009 (ip), vehicle: saline with Tween-80) 105 % of control; under setting [12], 103 % of control and 109 % of control; (dose: 1.0 mg/kg/injection, schedule: Q01DX009 (ip), vehicle: saline with Tween-80) 119 % of control; under setting [13], 118 % of control and 124 % of control; under setting [1], 111 % of control; (dose: 2.0 mg/kg/injection, schedule: Q01DX009 (ip), vehicle: saline) 111 % of control and 118 % of control. The T/C by setting is: (dose: 4.0 mg/kg/injection, schedule: Q01DX009 (ip), vehicle: saline with Tween-80) 117 % of control; under setting [2], 122 % of control.
`O=[N+]([O-])c1ccc(S(=O)(=O)c2ccccc2)c2c1no[n+]2[O-]`: the T/C was 109 % of control (dose: 10.0 mg/kg/injection, schedule: Q01DX009 (ip), vehicle: saline with Tween-80); 106 % of control (dose: 20.0 mg/kg/injection, schedule: Q01DX009 (ip), vehicle: saline with Tween-80); 106 % of control (dose: 40.0 mg/kg/injection, schedule: Q01DX009 (ip), vehicle: saline with Tween-80).
For `Cc1cc2nc3c(=O)[nH]c(=O)nc-3n(CCOC(=O)CCC(=O)O)c2cc1C`, the T/C is, setting by setting: (dose: 50.0 mg/kg/injection, schedule: Q01DX009 (ip), vehicle: saline sonified) 100 % of control; (dose: 100.0 mg/kg/injection, schedule: Q01DX009 (ip), vehicle: saline sonified) 100 % of control; (dose: 200.0 mg/kg/injection, schedule: Q01DX009 (ip), vehicle: saline sonified) 118 % of control.
On to `C=CCCCCC/C=C/CCCCCC`, for which the T/C was 90 % of control (dose: 75.0 mg/kg/injection, schedule: Q01DX010 (ip), vehicle: saline with Tween-80) and 122 % of control (dose: 150.0 mg/kg/injection, schedule: Q01DX010 (ip), vehicle: saline with Tween-80).
For `CC1(CO)C(O)CCC2(C)C1CCC1CC3CC12CCC3(O)CO` (configuration not stated), the T/C is, setting by setting: (dose: 75.0 mg/kg/injection, schedule: Q01DX009 (ip), vehicle: saline with Tween-80) 155 % of control; (dose: 150.0 mg/kg/injection, schedule: Q01DX009 (ip), vehicle: saline with Tween-80) 155 % of control.
For `COc1cc(/C=C2\C(=O)NC(=O)N(c3ccccc3)C2=O)cc(OC)c1OC`, the T/C was 109 % of control under setting [5]; 118 % of control under setting [6]; 100 % of control under setting [11]; 118 % of control under setting [7]; 108 % of control under setting [8]; 112 % of control under setting [9].
